This note sets out measurements from US8163724B2, “Glucocorticosteroids, processes for their preparation, pharmaceutical compositions containing them and their use in therapy” (AstraZeneca AB, priority 2007, dated 2012).

This assay concerns the target T1, recombinant human GR (Homo sapiens, UniProt P04150).
T1 construct: purchased Panvera/Invitrogen P2812 (kit P2893)
T1 sequence (P04150 1-777): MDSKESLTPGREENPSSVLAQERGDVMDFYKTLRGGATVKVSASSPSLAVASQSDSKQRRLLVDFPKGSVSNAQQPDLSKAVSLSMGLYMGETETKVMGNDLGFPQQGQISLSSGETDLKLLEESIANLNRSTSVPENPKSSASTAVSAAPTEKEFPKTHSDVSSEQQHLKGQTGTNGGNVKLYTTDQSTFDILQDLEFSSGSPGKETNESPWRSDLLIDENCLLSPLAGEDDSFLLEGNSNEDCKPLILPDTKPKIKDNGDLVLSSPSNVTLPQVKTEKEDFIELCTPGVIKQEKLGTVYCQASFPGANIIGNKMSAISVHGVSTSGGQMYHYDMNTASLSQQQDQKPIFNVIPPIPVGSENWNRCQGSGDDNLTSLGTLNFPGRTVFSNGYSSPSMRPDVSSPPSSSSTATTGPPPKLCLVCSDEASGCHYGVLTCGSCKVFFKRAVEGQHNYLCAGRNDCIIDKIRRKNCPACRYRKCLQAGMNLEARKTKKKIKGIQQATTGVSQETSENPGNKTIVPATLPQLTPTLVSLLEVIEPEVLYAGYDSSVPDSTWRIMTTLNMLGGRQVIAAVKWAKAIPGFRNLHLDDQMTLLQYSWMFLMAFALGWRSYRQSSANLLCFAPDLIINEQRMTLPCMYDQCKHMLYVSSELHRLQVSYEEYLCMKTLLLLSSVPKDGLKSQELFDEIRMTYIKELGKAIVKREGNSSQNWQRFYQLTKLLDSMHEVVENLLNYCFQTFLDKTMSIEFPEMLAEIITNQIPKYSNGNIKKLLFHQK
Nature of the assay: Human Glucocorticoid Receptor (GR) Assay (fluorescence polarization, Panvera/Invitrogen kit). Type of assay: binding. To be noted: fluorescence polarization; GS Red tracer; 2 hours at room temperature; 100% control 10 μM Dexamethasone; read-out: Inhibition of GR binding, IC50. The essentials: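 Fluorescence polarization competition with recombinant GR and GS Red fluorescent ligand plus stabilizing peptide and DTT in potassium phosphate/sodium molybdate/EDTA buffer with DMSO. Incubated 2 hours at room temperature in the dark; 0% control DMSO, 100% control 10 μM dexamethasone.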

The structures appear in SMILES notation.

Consider `Cc1nnsc1C(=O)O[C@]1(C(=O)SCF)CC[C@H]2[C@@H]3CCC4=Cc5c(cnn5-c5ccc(F)cc5)C[C@]4(C)[C@H]3[C@@H](O)C[C@@]21C` [Example 4, (1R,3aS,3bS,10aR,10bS,11S,12aS)-1-{[(Fluoromethyl)thio]carbonyl}-7-(4-fluorophenyl)-11-hydroxy-10a,12a-dimethyl-1,2,3,3a,3b,4,5,7,10,10a,10b,11,12,12a-tetradecahydrocyclopenta[5,6]naphtho[1,2-f]indazol-1-yl 4-methyl-1,2,3-thiadiazole-5-carboxylate], for which the half-inhibitory concentration (IC50) (commonly the point on the concentration scale where inhibition reaches its midpoint) turned out to be 5.9 nM.
In the case of `C[C@]12Cc3cnn(-c4ccc(F)cc4)c3C=C1CC[C@@H]1[C@@H]2[C@@H](O)C[C@@]2(C)[C@H]1CC[C@]2(OC(=O)c1nccs1)C(=O)SCC#CCO` [Example 41, (1R,3aS,3bS,10aR,10bS,11S,12aS)-7-(4-Fluorophenyl)-11-hydroxy-{[(4-hydroxy-but-2-yn-1-yl)thio]carbonyl}-10a,12a-dimethyl-1,2,3,3a,3b,4,5,7,10,10a,10b,11,12,12a-tetradecahydrocyclopenta[5,6]naphtho[1,2-f]indazol-1-yl 1,3-thiazole-2-carboxylate], the IC50 was found to be 4.1 nM.
Regarding `CCC(=O)O[C@]1(C(=O)SCCF)CC[C@H]2[C@@H]3CCC4=Cc5c(cnn5-c5ccc(F)cc5)C[C@]4(C)[C@H]3[C@@H](O)C[C@@]21C` [Example 26, (1R,3aS,3bS,10aR,10bS,11S,12aS)-1-{[(2-Fluoroethyl)thio]carbonyl}-7-(4-fluoro-phenyl)-11-hydroxy-10a,12a-dimethyl-1,2,3,3a,3b,4,5,7,10,10a,10b,11,12,12a-tetradecahydrocyclopenta[5,6]naphtho[1,2-f]indazol-1-yl propanoate], the half-inhibitory concentration (IC50) amounted to 4.3 nM.
Regarding `C[C@]12Cc3cnn(-c4ccc(F)cc4)c3C=C1CC[C@@H]1[C@@H]2[C@@H](O)C[C@@]2(C)[C@H]1CC[C@]2(OC(=O)c1cocn1)C(=O)SCCO` [Example 44, (1R,3aS,3bS,10aR,10bS,11S,12aS)-7-(4-Fluorophenyl)-11-hydroxy-1-{[(2-hydroxy-ethyl)thio]carbonyl}-10a,12a-dimethyl-1,2,3,3a,3b,4,5,7,10,10a,10b,11,12,12a-tetradecahydrocyclopenta[5,6]naphtho[1,2-f]indazol-1-yl 1,3-oxazole-4-carboxylate], the IC50 is 2.9 nM.
Take `COCSC(=O)[C@@]1(OC(=O)c2cocn2)CC[C@H]2[C@@H]3CCC4=Cc5c(cnn5-c5ccc(F)nc5)C[C@]4(C)[C@H]3[C@@H](O)C[C@@]21C` [Example 163, (1R,3aS,3bS,10aR,10bS,11S,12aS)-7-(6-Fluoropyridin-3-yl)-11-hydroxy-1-{[(methoxymethyl)sulfanyl]carbonyl}-10a,12a-dimethyl-1,2,3,3a,3b,4,5,7,10,10a,10b,11,12,12a-tetradecahydrocyclopenta[5,6]naphtho[1,2-f]indazol-1-yl 1,3-oxazole-4-carboxylate]: the IC50 stood at 1.7 nM.
As for `C[C@]12Cc3cnn(-c4ccc(F)cc4)c3C=C1CC[C@@H]1[C@@H]2[C@@H](O)C[C@@]2(C)[C@H]1CC[C@]2(OC(=O)C1CCCOC1)C(=O)SCC#N` (single isomer, unassigned) [Example 138], the IC50 was found to be 3.8 nM.
In the case of `CC(=O)O[C@]1(C(=O)CSC#N)CC[C@H]2[C@@H]3CCC4=Cc5c(cnn5-c5ccc(F)cc5)C[C@]4(C)[C@H]3[C@@H](O)C[C@@]21C` [Example 130, (1R,3aS,3bS,10aR,10bS,11S,12aS)-7-(4-Fluorophenyl)-11-hydroxy-10a,12a-dimethyl-1-(thiocyanatoacetyl)-1,2,3,3a,3b,4,5,7,10,10a,10b,11,12,12a-tetradecahydrocyclopenta[5,6]naphtho[1,2-f]indazol-1-yl acetate], the IC50 was found to be 5.9 nM.
For the compound `C[C@]12Cc3cnn(-c4ccc(F)nc4)c3C=C1CC[C@H]1[C@@H]3CC[C@](OC(=O)C4CC4)(C(=O)SCF)[C@@]3(C)C[C@H](O)[C@@]12F` [Example 208, (1R,3aS,3bS,10aS,10bR,11S,12aS)-1-{[(Fluoromethyl)sulfanyl]carbonyl}-10b-fluoro-7-(6-fluoropyridin-3-yl)-11-hydroxy-10a,12a-dimethyl-1,2,3,3a,3b,4,5,7,10,10a,10b,11,12,12a-tetradecahydrocyclopenta[5,6]naphtho[1,2-f]indazol-1-yl cyclopropanecarboxylate], the IC50 was found to be 3.4 nM.
As for `C[C@]12Cc3cnn(-c4ccc(F)cc4)c3C=C1CC[C@@H]1[C@@H]2[C@@H](O)C[C@@]2(C)[C@H]1CC[C@]2(OC(=O)c1ccoc1)C(=O)SCCO` [Example 52, (1R,3aS,3bS,10aR,10bS,11S,12aS)-7-(4-Fluorophenyl)-11-hydroxy-1-{[(2-hydroxy-ethyl)thio]carbonyl}-10a,12a-dimethyl-1,2,3,3a,3b,4,5,7,10,10a,10b,11,12,12a-tetradecahydrocyclopenta[5,6]naphtho[1,2-f]indazol-1-yl furan-3-carboxylate], the IC50 is 6.4 nM.
The result for `C[C@]12Cc3cnn(-c4ccc(F)nc4)c3C=C1CC[C@@H]1[C@@H]2[C@@H](O)C[C@@]2(C)[C@H]1CC[C@]2(OC(=O)[C@H]1CCCO1)C(=O)SCC#N` [Example 185, (1R,3aS,3bS,10aR,10bS,11S,12aS)-1-{[(Cyanomethyl)sulfanyl]carbonyl}-7-(6-fluoropyridin-3-yl)-11-hydroxy-10a,12a-dimethyl-1,2,3,3a,3b,4,5,7,10,10a,10b,11,12,12a-tetradecahydrocyclopenta[5,6]naphtho[1,2-f]indazol-1-yl (2R)-tetrahydrofuran-2-carboxylate] reads 2.7 nM; that for `C[C@]12Cc3cnn(-c4ccc(F)nc4)c3C=C1CC[C@@H]1[C@@H]2[C@@H](O)C[C@@]2(C)[C@H]1CC[C@]2(OC(=O)C1CC1)C(=O)SCCO` [Example 155, (1R,3aS,3bS,10aR,10bS,11S,12aS)-7-(6-Fluoropyridin-3-yl)-11-hydroxy-1-{[(2-hydroxyethyl)sulfanyl]carbonyl}-10a,12a-dimethyl-1,2,3,3a,3b,4,5,7,10,10a,10b,11,12,12a-tetradecahydrocyclopenta[5,6]naphtho[1,2-f]indazol-1-yl cyclopropanecarboxylate], 1.9 nM; that for `C[C@]12Cc3cnn(-c4ccc(F)cc4)c3C=C1CC[C@H]1[C@@H]3CC[C@](OC(=O)c4cocn4)(C(=O)SCF)[C@@]3(C)C[C@H](O)[C@@]12F` [Example 202, (1R,3aS,3bS,10aS,10bR,11S,12aS)-1-{[(Fluoromethyl)sulfanyl]carbonyl}-10b-fluoro-7-(4-fluorophenyl)-11-hydroxy-10a,12a-dimethyl-1,2,3,3a,3b,4,5,7,10,10a,10b,11,12,12a-tetradecahydrocyclopenta[5,6]naphtho[1,2-f]indazol-1-yl 1,3-oxazole-4-carboxylate], 5.8 nM.
Take `CSC(=O)[C@@]1(OC(=O)c2ccco2)CC[C@H]2[C@@H]3CCC4=Cc5c(cnn5-c5ccc(F)cc5)C[C@]4(C)[C@H]3[C@@H](O)C[C@@]21C` [Example 64, (1R,3aS,3bS,10aR,10bS,11S,12aS)-7-(4-Fluorophenyl)-11-hydroxy-10a,12a-dimethyl-1-[(methylthio)carbonyl]-1,2,3,3a,3b,4,5,7,10,10a,10b,11,12,12a-tetradecahydropcyclopenta[5,6]naphtho[1,2-f]indazol-1-yl furan-2-carboxylate]: the IC50 worked out at 5.8 nM.
Turning to `CCC(=O)O[C@]1(C(=O)SCF)CC[C@H]2[C@@H]3CCC4=Cc5c(cnn5-c5ccc(F)cc5)C[C@]4(C)[C@@]3(F)[C@@H](O)C[C@@]21C` [Example 200, (1R,3aS,3bS,10aS,10bR,11S,12aS)-1-{[(Fluoromethyl)sulfanyl]carbonyl}-10b-fluoro-7-(4-fluorophenyl)-11-hydroxy-10a,12a-dimethyl-1,2,3,3a,3b,4,5,7,10,10a,10b,11,12,12a-tetradecahydrocyclopenta[5,6]naphtho[1,2-f]indazol-1-yl propanoate], the IC50 is 14 nM.
For `CC(=O)CSC(=O)[C@@]1(OC(=O)c2ccco2)CC[C@H]2[C@@H]3CCC4=Cc5c(cnn5-c5ccc(F)cc5)C[C@]4(C)[C@H]3[C@@H](O)C[C@@]21C` [Example 89, (1R,3aS,3bS,10aR,10bS,11S,12aS)-7-(4-Fluorophenyl)-11-hydroxy-10a,12a-dimethyl-1-{[(2-oxopropyl)sulfanyl]carbonyl}-1,2,3,3a,3b,4,5,7,10,10a,10b,11,12,12a-tetradecahydrocyclopenta[5,6]naphtho[1,2-f]indazol-1-yl furan-2-carboxylate], the IC50 amounted to 6.9 nM.
